Target: T1, mTOR (Homo sapiens, UniProt P42345)
T1 construct: FLAG; made in house
Test: In Vitro mTOR Kinase Assay (Echo), Test (a)(ii)
Assay type: biochemical
Settings: table of enzyme assay Test (a)(ii); read-out: Test (a)(ii) IC50
Summary of the method: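 FLAG-tagged human mTOR truncation (residues 1362-2549) expressed in HEK293 cells and FLAG-purified. Compounds dispensed acoustically, reaction 2 h at room temperature, stopped with EDTA. Phosphorylation of biotinylated peptide detected by AlphaScreen with anti-p70 S6K (T389) antibody overnight; IC50 reported.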

T1 sequence (P42345 1362-2549): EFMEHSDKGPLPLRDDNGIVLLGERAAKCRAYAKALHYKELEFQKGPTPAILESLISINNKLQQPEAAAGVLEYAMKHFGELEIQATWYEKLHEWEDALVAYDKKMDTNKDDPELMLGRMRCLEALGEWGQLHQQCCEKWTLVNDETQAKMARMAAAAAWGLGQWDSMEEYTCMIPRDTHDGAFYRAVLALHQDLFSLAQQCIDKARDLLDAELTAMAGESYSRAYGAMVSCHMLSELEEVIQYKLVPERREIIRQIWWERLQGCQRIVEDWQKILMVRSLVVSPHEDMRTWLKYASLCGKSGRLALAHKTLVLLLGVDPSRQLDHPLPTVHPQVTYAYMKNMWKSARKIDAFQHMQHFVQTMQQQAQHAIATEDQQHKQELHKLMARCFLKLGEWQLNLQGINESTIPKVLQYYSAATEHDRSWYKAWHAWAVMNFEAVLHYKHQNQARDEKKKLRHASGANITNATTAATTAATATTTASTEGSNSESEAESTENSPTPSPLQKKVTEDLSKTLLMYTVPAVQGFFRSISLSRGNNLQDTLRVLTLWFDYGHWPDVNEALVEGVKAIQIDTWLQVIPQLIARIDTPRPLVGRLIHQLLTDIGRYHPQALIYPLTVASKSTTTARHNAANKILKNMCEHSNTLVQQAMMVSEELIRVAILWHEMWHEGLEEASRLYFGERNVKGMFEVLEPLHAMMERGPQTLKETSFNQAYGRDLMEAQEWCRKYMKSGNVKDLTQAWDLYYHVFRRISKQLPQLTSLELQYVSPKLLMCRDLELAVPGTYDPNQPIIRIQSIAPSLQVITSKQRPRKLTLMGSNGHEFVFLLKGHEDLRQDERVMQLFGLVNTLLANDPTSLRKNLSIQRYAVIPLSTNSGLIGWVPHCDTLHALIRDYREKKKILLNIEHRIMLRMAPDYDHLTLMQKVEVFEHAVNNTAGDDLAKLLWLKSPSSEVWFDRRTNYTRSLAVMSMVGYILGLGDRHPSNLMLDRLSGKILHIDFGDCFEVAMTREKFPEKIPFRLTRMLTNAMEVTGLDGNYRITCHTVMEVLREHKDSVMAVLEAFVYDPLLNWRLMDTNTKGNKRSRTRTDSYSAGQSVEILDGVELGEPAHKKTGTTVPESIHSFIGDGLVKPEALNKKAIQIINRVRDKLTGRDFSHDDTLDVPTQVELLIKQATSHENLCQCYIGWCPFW

`CCNC(=O)Nc1ccc(-c2nc(N3CCOC[C@@H]3C)cc(C3(S(=O)(=O)c4ccc(F)cc4C)CC3)n2)cc1` [Example 82e, 3-ethyl-1-[4-[4-[1-(4-fluoro-2-methylphenyl)sulfonylcyclopropyl]-6-[(3S)-3-methylmorpholin-4-yl]pyrimidin-2-yl]phenyl]urea] and `Cc1cc(F)ccc1S(=O)(=O)C1(c2cc(N3CCOC[C@@H]3C)nc(-c3ccc(NC(=O)Nc4cnn(C)c4)cc3)n2)CC1` [Example 82f, 1-[4-[4-[1-(4-fluoro-2-methylphenyl)sulfonylcyclopropyl]-6-[(3S)-3-methylmorpholin-4-yl]pyrimidin-2-yl]phenyl]-3-(1-methylpyrazol-4-yl)urea] are within 1.5-fold of each other in IC50: 20.8 nM for the first, 27.3 nM for the second.

`C[C@H]1COCCN1c1cc(C2(S(=O)(=O)c3ccncc3)CCC2)nc(-c2ccc(NC(=O)NCCO)cc2)n1` [Example 83, 3-(2-Hydroxyethyl)-1-[4-[4-[(3S)-3-methylmorpholin-4-yl]-6-(1-pyridin-4-ylsulfonylcyclobutyl)pyrimidin-2-yl]phenyl]urea] and `C[C@@H](CO)NC(=O)Nc1ccc(-c2nc(N3CCOC[C@@H]3C)cc(C3(S(=O)(=O)c4ccncc4)CCC3)n2)cc1` [Example 83a, 3-[(2S)-1-hydroxypropan-2-yl]-1-[4-[4-[(3S)-3-methylmorpholin-4-yl]-6-(1-pyridin-4-ylsulfonylcyclobutyl)pyrimidin-2-yl]phenyl]urea] are within 1.5-fold of each other in IC50: 3.46 nM for the first, 4.83 nM for the second.

`C[C@H](CO)NC(=O)Nc1ccc(-c2nc(N3CCOC[C@@H]3C)cc(C3(S(=O)(=O)c4ccncc4)CCC3)n2)cc1` [Example 83b, 3-[(2R)-1-hydroxypropan-2-yl]-1-[4-[4-[(3S)-3-methylmorpholin-4-yl]-6-(1-pyridin-4-ylsulfonylcyclobutyl)pyrimidin-2-yl]phenyl]urea] and `C[C@H]1COCCN1c1cc(C2(S(=O)(=O)c3ccncc3)CCC2)nc(-c2ccc(NC(=O)NC(C)(C)CO)cc2)n1` [Example 83c, 3-(1-hydroxy-2-methylpropan-2-yl)-1-[4-[4-[(3S)-3-methylmorpholin-4-yl]-6-(1-pyridin-4-ylsulfonylcyclobutyl)pyrimidin-2-yl]phenyl]urea] are within 1.5-fold of each other in IC50: 11.4 nM for the first, 12.4 nM for the second.

Going from `C[C@H]1COCCN1c1cc(C2(S(=O)(=O)c3ccncc3)CCC2)nc(-c2ccc(NC(=O)NCc3ncc[nH]3)cc2)n1` [Example 83d, 3-(1H-imidazol-2-ylmethyl)-1-[4-[4-[(3S)-3-methylmorpholin-4-yl]-6-(1-pyridin-4-ylsulfonylcyclobutyl)pyrimidin-2-yl]phenyl]urea] to `CCNC(=O)Nc1ccc(-c2nc(N3CCOC[C@@H]3C)cc(C3(S(=O)(=O)c4c(F)cccc4F)CC3)n2)cc1` [Example 86a, 1-[4-[4-[1-(2,6-difluorophenyl)sulfonylcyclopropyl]-6-[(3S)-3-methylmorpholin-4-yl]pyrimidin-2-yl]phenyl]-3-ethylurea], the IC50 falls from 47.2 nM to 5.22 nM (9-fold). The second is the more potent here.

`CC[C@H]1COCCN1c1cc(C2(S(C)(=O)=O)CC2)nc(-c2ccc(NC(=O)NC)cc2)n1` [Example 84, 1-[4-[4-[(3S)-3-Ethylmorpholin-4-yl]-6-(1-methylsulfonylcyclopropyl)pyrimidin-2-yl]phenyl]-3-methylurea] and `CCNC(=O)Nc1ccc(-c2nc(N3CCOC[C@@H]3CC)cc(C3(S(C)(=O)=O)CC3)n2)cc1` [Example 84e, 3-ethyl-1-[4-[4-[(3S)-3-ethylmorpholin-4-yl]-6-(1-methylsulfonylcyclopropyl)pyrimidin-2-yl]phenyl]urea] are within 1.5-fold of each other in IC50: 9.56 nM for the first, 8.18 nM for the second.

Compared with `CC[C@H]1COCCN1c1cc(C2(S(C)(=O)=O)CC2)nc(-c2ccc(NC(=O)NC3CC3)cc2)n1` [Example 84a, 3-cyclopropyl-1-[4-[4-[(3S)-3-ethylmorpholin-4-yl]-6-(1-methylsulfonylcyclopropyl)pyrimidin-2-yl]phenyl]urea], `CC[C@H]1COCCN1c1cc(C2(S(C)(=O)=O)CC2)nc(-c2ccc(NC(=O)NCCO)cc2)n1` [Example 84b, 1-[4-[4-[(3S)-3-ethylmorpholin-4-yl]-6-(1-methylsulfonylcyclopropyl)pyrimidin-2-yl]phenyl]-3-(2-hydroxyethyl)urea] is 2.4-fold lower in IC50: 9.09 nM for the first, 3.85 nM for the second.

`CC[C@H]1COCCN1c1cc(C2(S(C)(=O)=O)CC2)nc(-c2ccc(NC(=O)NCCF)cc2)n1` [Example 84c, 1-[4-[4-[(3S)-3-ethylmorpholin-4-yl]-6-(1-methylsulfonylcyclopropyl)pyrimidin-2-yl]phenyl]-3-(2-fluoroethyl)urea] and `CC[C@H]1COCCN1c1cc(C2(S(C)(=O)=O)CC2)nc(-c2ccc(NC(=O)NCC(F)F)cc2)n1` [Example 84d, 3-(2,2-difluoroethyl)-1-[4-[4-[(3S)-3-ethylmorpholin-4-yl]-6-(1-methylsulfonylcyclopropyl)pyrimidin-2-yl]phenyl]urea] are within 1.5-fold of each other in IC50: 8.29 nM for the first, 9.59 nM for the second.

Going from `CC[C@H]1COCCN1c1cc(C2(S(C)(=O)=O)CC2)nc(-c2ccc(NC(=O)Nc3cnn(C)c3)cc2)n1` [Example 84f, 1-[4-[4-[(3S)-3-ethylmorpholin-4-yl]-6-(1-methylsulfonylcyclopropyl)pyrimidin-2-yl]phenyl]-3-(1-methylpyrazol-4-yl)urea] to `CCNC(=O)Nc1ccc(-c2nc(N3CCOC[C@@H]3C)cc(C3(S(=O)(=O)c4ccc(C(N)=O)cc4Cl)CC3)n2)cc1` [Example 85a, 3-chloro-4-[1-[2-[4-(ethylcarbamoylamino)phenyl]-6-[(3S)-3-methylmorpholin-4-yl]pyrimidin-4-yl]cyclopropyl]sulfonylbenzamide], the IC50 falls from 13.4 nM to 3.13 nM (4.3-fold). The second is the more potent here.

`CNC(=O)Nc1ccc(-c2nc(N3CCOC[C@@H]3C)cc(C3(S(=O)(=O)c4ccc(C(N)=O)cc4Cl)CC3)n2)cc1` [Example 85, 3-Chloro-4-[1-[2-[4-(methylcarbamoylamino)phenyl]-6-[(3S)-3-methylmorpholin-4-yl]pyrimidin-4-yl]cyclopropyl]sulfonylbenzamide] and `C[C@H]1COCCN1c1cc(C2(S(=O)(=O)c3ccc(C(N)=O)cc3Cl)CC2)nc(-c2ccc(NC(=O)NC3CC3)cc2)n1` [Example 85b, 3-chloro-4-[1-[2-[4-(cyclopropylcarbamoylamino)phenyl]-6-[(3S)-3-methylmorpholin-4-yl]pyrimidin-4-yl]cyclopropyl]sulfonylbenzamide] are within 1.5-fold of each other in IC50: 4.77 nM for the first, 5.26 nM for the second.

First: C[C@H]1COCCN1c1cc(C2(S(=O)(=O)c3ccc(C(N)=O)cc3Cl)CC2)nc(-c2ccc(NC(=O)NCCF)cc2)n1 [Example 85c, 3-chloro-4-[1-[2-[4-(2-fluoroethylcarbamoylamino)phenyl]-6-[(3S)-3-methylmorpholin-4-yl]pyrimidin-4-yl]cyclopropyl]sulfonylbenzamide]
Second: C[C@H]1COCCN1c1cc(C2(S(=O)(=O)c3ccc(C(N)=O)cc3Cl)CC2)nc(-c2ccc(NC(=O)NCCO)cc2)n1 [Example 85d, 3-chloro-4-[1-[2-[4-(2-hydroxyethylcarbamoylamino)phenyl]-6-[(3S)-3-methylmorpholin-4-yl]pyrimidin-4-yl]cyclopropyl]sulfonylbenzamide]
The IC50 of the first is 1.6-fold higher: 5.09 nM for the first, 3.23 nM for the second.

`CNC(=O)Nc1ccc(-c2nc(N3CCOC[C@@H]3C)cc(C3(S(=O)(=O)c4ccc(C#N)cc4Cl)CC3)n2)cc1` [Example 85e, 1-[4-[4-[1-(2-chloro-4-cyanophenyl)sulfonylcyclopropyl]-6-[(3S)-3-methylmorpholin-4-yl]pyrimidin-2-yl]phenyl]-3-methylurea] and `CCNC(=O)Nc1ccc(-c2nc(N3CCOC[C@@H]3C)cc(C3(S(=O)(=O)c4ccc(C#N)cc4Cl)CC3)n2)cc1` [Example 85f, 3-[4-[4-[1-(2-chloro-4-cyanophenyl)sulfonylcyclopropyl]-6-[(3S)-3-methylmorpholin-4-yl]pyrimidin-2-yl]phenyl]-1-ethylurea] are within 1.5-fold of each other in IC50: 18.3 nM for the first, 20.2 nM for the second.

Compared with `C[C@H]1COCCN1c1cc(C2(S(=O)(=O)c3ccc(C#N)cc3Cl)CC2)nc(-c2ccc(NC(=O)NC3CC3)cc2)n1` [Example 85g, 1-[4-[4-[1-(2-chloro-4-cyanophenyl)sulfonylcyclopropyl]-6-[(3S)-3-methylmorpholin-4-yl]pyrimidin-2-yl]phenyl]-3-cyclopropylurea], `C[C@H]1COCCN1c1cc(C2(S(=O)(=O)c3ccc(C#N)cc3Cl)CC2)nc(-c2ccc(NC(=O)NCCF)cc2)n1` [Example 85i, 1-[4-[4-[1-(2-chloro-4-cyanophenyl)sulfonylcyclopropyl]-6-[(3S)-3-methylmorpholin-4-yl]pyrimidin-2-yl]phenyl]-3-(2-fluoroethyl)urea] is 1.7-fold lower in IC50: 25.9 nM for the first, 15.3 nM for the second. The second is the more potent here.

Compared with `C[C@H]1COCCN1c1cc(C2(S(=O)(=O)c3ccc(C#N)cc3Cl)CC2)nc(-c2ccc(NC(=O)NCC(F)F)cc2)n1` [Example 85h, 1-[4-[4-[1-(2-chloro-4-cyanophenyl)sulfonylcyclopropyl]-6-[(3S)-3-methylmorpholin-4-yl]pyrimidin-2-yl]phenyl]-3-(2,2-difluoroethyl)urea], `C[C@H]1COCCN1c1cc(C2(S(=O)(=O)c3ccc(C#N)cc3Cl)CC2)nc(-c2ccc(NC(=O)NCCO)cc2)n1` [Example 85j, 1-[4-[4-[1-(2-chloro-4-cyanophenyl)sulfonylcyclopropyl]-6-[(3S)-3-methylmorpholin-4-yl]pyrimidin-2-yl]phenyl]-3-(2-hydroxyethyl)urea] is 3.4-fold lower in IC50: 42.6 nM for the first, 12.4 nM for the second.

Going from `CNC(=O)Nc1ccc(-c2nc(N3CCOC[C@@H]3C)cc(C3(S(=O)(=O)c4c(F)cccc4F)CC3)n2)cc1` [Example 86, 1-[4-[4-[1-(2,6-Difluorophenyl)sulfonylcyclopropyl]-6-[(3S)-3-methylmorpholin-4-yl]pyrimidin-2-,yl]phenyl]-3-methylurea] to `C[C@H]1COCCN1c1cc(C2(S(=O)(=O)c3c(F)cccc3F)CC2)nc(-c2ccc(NC(=O)NC3CC3)cc2)n1` [Example 86b, 3-cyclopropyl-1-[4-[4-[1-(2,6-difluorophenyl)sulfonylcyclopropyl]-6-[(3S)-3-methylmorpholin-4-yl]pyrimidin-2-yl]phenyl]urea], the IC50 rises from 2.47 nM to 7.25 nM (2.9-fold).

`C[C@H]1COCCN1c1cc(C2(S(=O)(=O)c3c(F)cccc3F)CC2)nc(-c2ccc(NC(=O)NCCO)cc2)n1` [Example 86c, 1-[4-[4-[1-(2,6-difluorophenyl)sulfonylcyclopropyl]-6-[(3S)-3-methylmorpholin-4-yl]pyrimidin-2-yl]phenyl]-3-(2-hydroxyethyl)urea] was tested, and the IC50 was 2.47 nM.

Reference: patent US20090018134A1, “Compounds - 945” (AstraZeneca AB, priority 2007, published 2009)
